The values below come from patent publication US20220192955A1, “AZOXYSTROBIN EFFICACY IN SCALP HEALTH” (The Procter & Gamble Company, priority 2020, published 2022).

The test system of the test is Malassezia furfur (CBS 7982). As to the kind of experiment: In vitro evaluation of antifungal potency (MIC). The following applies: for MIC value, Malassezia furfur / MIC: M. furfur CBS 7982, mDixon medium, 31° C., approximately 72 hours, absorbance at 600 nm; for MIC: Malassezia furfur, CBS7982. In kind it is cell-based. The procedure:
Malassezia furfur (CBS 7982) is grown for approximately 24 hours in a 250 ml vent cap polycarbonate Erlenmeyer flask containing approximately 100 ml of mDixon medium and 5 ml of a fully grown M. furfur culture prepared using the same conditions as described. The cells are diluted by mixing 2.5 ml of the 24 hour-old culture per 50 ml of mDixon medium. A Versette robot (ThermoFisher Scientific) is used to transfer 292.5 μl of the dilute cells into each well of a Beckman 267007 polypropylene round bottom deep well plate. All compounds are sourced from Sigma Aldrich (St. Louis, Mo.) and prepared as 10 mg/ml in DMSO. A semipermeable aeraseal membrane is applied to the plate which is then be covered with water-soaked cotton batting. The samples are be shaken at 31° C. on a Heidolph Titramax 100 shaker at 1500 rpm for approximately 72 hours. The plates are shaken at 1250 rpm on an Eppendorf MixMate shaker to disperse the cells before transferring 200 μl to a Corning 3596 polystyrene plate. The samples are shaken again at 950 rpm on a MixMate shaker before the absorbance at 600 nm is read using a Molecular Devices SpectraMax plate reader.

In brackets after ≈: the same amount, converted by molar mass.

The term MIC denotes the smallest concentration in the dilution series that meets the test's criterion for growth inhibition. A higher MIC goes with a less susceptible organism.

For the molecule `CNC(=O)/C(=N/OC)c1ccccc1COc1cc(C)ccc1C` [Dimoxystrobin, dimoxystrobin], the “MIC value, Malassezia furfur” value came to 7.81 ppm. With `CO/N=C(/C1=NOCCO1)c1ccccc1Oc1ncnc(Oc2ccccc2Cl)c1F` [Fluoxastrobin, fluoxastrobin], the minimum inhibitory concentration (MIC) was 3.91 µg/mL (≈ 8.52 µM). The same measure, in the same setting: the value for `CO/N=C(/C(=O)OC)c1ccccc1COc1ccccc1C` [Kresoxim-methyl, kresoxim methyl] was 15.6 µg/mL (≈ 49.9 µM). With `CNC(=O)/C(=N/OC)c1ccccc1CO/N=C(C)/C(=N/OC)C(/C)=N/OC` [Orysastrobin, orysastrobin], the “MIC value, Malassezia furfur” value is reported as 31.25 ppm. The “times less potent than azoxystrobin (MIC)” value (Malassezia furfur MIC ratio) is 64 times.

The molecule `COC(=O)N(OC)c1ccccc1COc1ccn(-c2ccc(Cl)cc2)n1` [Pyraclastrobin, pyraclostrobin] showed an MIC of 1.95 µg/mL (≈ 5.03 µM).

In turn, `CON=C(C(=O)OC)c1ccccc1CON=C(C)c1cccc(C(F)(F)F)c1` [Trifloxystrobin, trifloxystrobin] showed a minimum inhibitory concentration (MIC) of 15.6 µg/mL (≈ 38.3 µM).

Turning to zinc pyrithione, the “MIC value, Malassezia furfur” value was found to be 3.13 ppm.
